The values that follow come from paper PMC11817610, “Stereoselective Synthesis and Biological Evaluation of Perhydroquinoxaline-Based κ Receptor Agonists” (International Journal of Molecular Sciences, 2025).

Where two headings read alike, the source gives them in different places.

In data set [1] the target is T1, σ2 receptor (Rattus norvegicus, UniProt Q5U3Y7).
T1 construct: The thawed rat liver membrane preparation; tissue Harlan-Winkelmann, Borchen, Germany; host or cells: rat liver membrane homogenate
T1 sequence (Q5U3Y7 1-176): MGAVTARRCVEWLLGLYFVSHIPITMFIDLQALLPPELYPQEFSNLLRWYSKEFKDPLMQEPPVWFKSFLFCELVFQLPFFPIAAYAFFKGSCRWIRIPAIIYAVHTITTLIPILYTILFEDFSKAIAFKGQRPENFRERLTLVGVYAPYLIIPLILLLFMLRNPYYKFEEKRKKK
As to the kind of experiment: biochemical. As to conditions: read-out: inhibition of the radioligand binding, σ2 Receptor.

The next data set has as its target κ receptor (Cavia porcellus, UniProt P41144). As to the kind of experiment: κ receptor radioligand binding assay with [3H]U-69,593, guinea pig brain membranes.
Data set [2] deals with T2, σ1 receptor (Cavia porcellus, UniProt Q60492). The experiment in a line: σ1 receptor radioligand binding assay with [3H]-(+)-pentazocine, guinea pig brain membranes. As to conditions: read-out: Ki ± SEM σ1 Receptor.
Data set [3] concerns the target T3, δ receptor (Rattus norvegicus, UniProt P33533).
T3 construct: The thawed rat brain membrane preparation (about 75 μg of the protein) was incubated; tissue Harlan-Winkelmann, Borchen, Germany; host or cells: rat brain membrane homogenate
The experiment in a line: δ receptor radioligand binding assay with [3H]DPDPE, rat brain membranes. As to conditions: read-out: inhibition of the radioligand binding, δ Receptor.

A further data set has as its target human serum albumin (Homo sapiens, UniProt P02768). The experiment in a line: in vitro. Particulars: plasma.
The next data set in a line: physchem. As to conditions: pH 7.4.
Data set [4] concerns the target T4, μ receptor (Cavia porcellus, UniProt A0ACM8Q262). The experiment in a line: μ receptor radioligand binding assay with [3H]DAMGO, guinea pig brain membranes.
The conditions of data set [5]: mouse, microsomes, 1.5 h.
The target in data set [6] is T4, μ receptor. Further details: method as in PMID 25062506. Particulars: [3H]DAMGO, guinea pig brain membranes; cited from earlier work.
Data set [7] concerns the target T2, σ1 receptor. As to conditions: [3H]-(+)-pentazocine, guinea pig brain membranes; cited from earlier work.
Data set [8] addresses T3, δ receptor. Further details: method as in PMID 25062506. Particulars: test compound 1 μM, [3H]DPDPE, rat brain membranes; cited from earlier work.
Data set [9] has as its target T1, σ2 receptor. Particulars: read-out: Ki σ2 Receptor; [3H]DTG, rat liver membranes; cited from earlier work.

T4 sequence (A0ACM8Q262 1-400): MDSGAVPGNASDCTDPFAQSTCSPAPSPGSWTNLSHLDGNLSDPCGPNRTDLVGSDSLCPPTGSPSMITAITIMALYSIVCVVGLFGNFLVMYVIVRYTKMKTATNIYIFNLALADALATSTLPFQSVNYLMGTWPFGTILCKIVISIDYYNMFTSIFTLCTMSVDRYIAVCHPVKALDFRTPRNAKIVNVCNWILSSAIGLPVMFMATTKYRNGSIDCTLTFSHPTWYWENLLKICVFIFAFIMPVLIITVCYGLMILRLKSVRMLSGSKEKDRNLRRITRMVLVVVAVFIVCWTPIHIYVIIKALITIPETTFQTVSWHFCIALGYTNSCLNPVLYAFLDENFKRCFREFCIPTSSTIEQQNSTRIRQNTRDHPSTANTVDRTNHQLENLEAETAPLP
Sequence of κ receptor (P41144 whole entry): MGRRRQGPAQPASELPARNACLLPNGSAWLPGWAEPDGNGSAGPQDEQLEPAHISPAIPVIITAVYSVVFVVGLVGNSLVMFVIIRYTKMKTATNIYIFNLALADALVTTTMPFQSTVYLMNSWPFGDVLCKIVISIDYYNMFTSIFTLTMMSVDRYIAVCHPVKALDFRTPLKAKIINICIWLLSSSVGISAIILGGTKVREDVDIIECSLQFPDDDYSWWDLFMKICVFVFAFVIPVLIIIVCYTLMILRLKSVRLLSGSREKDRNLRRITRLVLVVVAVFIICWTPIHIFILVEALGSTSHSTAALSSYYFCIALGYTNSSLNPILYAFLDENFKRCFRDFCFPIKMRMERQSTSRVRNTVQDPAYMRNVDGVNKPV
T2 sequence (Q60492 whole entry): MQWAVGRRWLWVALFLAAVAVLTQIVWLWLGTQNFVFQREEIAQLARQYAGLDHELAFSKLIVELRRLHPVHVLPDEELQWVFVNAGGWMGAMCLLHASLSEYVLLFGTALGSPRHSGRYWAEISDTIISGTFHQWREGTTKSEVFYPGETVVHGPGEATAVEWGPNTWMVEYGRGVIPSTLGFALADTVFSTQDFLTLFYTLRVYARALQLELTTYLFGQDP
T3 sequence (P33533 whole entry): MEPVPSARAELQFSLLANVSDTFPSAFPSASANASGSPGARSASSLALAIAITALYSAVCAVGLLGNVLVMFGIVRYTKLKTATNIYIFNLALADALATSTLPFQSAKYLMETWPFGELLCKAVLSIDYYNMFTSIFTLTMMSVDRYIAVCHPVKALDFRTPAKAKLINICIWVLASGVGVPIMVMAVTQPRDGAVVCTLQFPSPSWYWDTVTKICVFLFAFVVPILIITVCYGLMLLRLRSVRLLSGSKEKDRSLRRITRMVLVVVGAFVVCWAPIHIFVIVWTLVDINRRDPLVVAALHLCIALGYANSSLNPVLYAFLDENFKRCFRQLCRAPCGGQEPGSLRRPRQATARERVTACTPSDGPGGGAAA
Sequence of human serum albumin (P02768 25-609): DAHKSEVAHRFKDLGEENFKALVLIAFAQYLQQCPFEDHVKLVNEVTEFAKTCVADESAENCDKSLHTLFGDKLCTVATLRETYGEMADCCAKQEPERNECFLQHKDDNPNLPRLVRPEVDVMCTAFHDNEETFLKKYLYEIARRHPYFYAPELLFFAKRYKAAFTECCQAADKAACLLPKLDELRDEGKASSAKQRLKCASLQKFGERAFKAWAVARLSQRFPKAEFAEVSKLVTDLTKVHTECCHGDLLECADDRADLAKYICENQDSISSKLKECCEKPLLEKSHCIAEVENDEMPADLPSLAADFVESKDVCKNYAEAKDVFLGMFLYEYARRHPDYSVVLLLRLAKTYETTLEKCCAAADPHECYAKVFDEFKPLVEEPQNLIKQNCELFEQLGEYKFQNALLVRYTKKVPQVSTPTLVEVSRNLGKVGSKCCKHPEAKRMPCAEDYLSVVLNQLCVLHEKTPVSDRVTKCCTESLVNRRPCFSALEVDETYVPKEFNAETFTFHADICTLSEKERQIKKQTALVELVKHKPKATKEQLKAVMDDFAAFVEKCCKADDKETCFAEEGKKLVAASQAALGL

Usually inhibition stands for the relative decrease from the control value, in per cent. As usually defined, the Ki is the equilibrium dissociation constant of an inhibitor or competing ligand from its target. On to `CC(C)(C)[Si](C)(C)O[C@@H]1C[C@@H]2[C@@H]([C@@H](N3CCCC3)C1)N(C(=O)Cc1ccc(Cl)c(Cl)c1)CCN2Cc1ccccc1` (racemic) [compound 13, 1-[(4aRS,6SR,8SR,8aRS)-4-Benzyl-6-(tert-butyldimethylsilyloxy)-8-(pyrrolidin-1-yl)-decahydroquinoxalin-1-yl]-2-(3,4-dichlorophenyl)ethan-1-one], for which the inhibition at 1 µM on σ2 receptor [1] is 7%; on κ receptor (read-out: inhibition of the radioligand binding, κ Receptor), 0%. Moreover, the Ki at σ1 receptor [2] was 0.487 µM.
What is called fraction unbound is the share of the substance not bound to proteins or other matrix. A low value points to extensive binding. In general, logD refers to the decadic logarithm of the distribution of all forms, ionised or not, between an organic phase and buffer at a given pH. In the case of `O=C(Cc1ccc(Cl)c(Cl)c1)N1CCN(Cc2ccccc2)[C@@H]2C[C@@H](O)C[C@H](N3CCCC3)[C@H]21` (racemic) [compound 14, 1-[(4aRS,6SR,8SR,8aRS)-4-Benzyl-6-hydroxy-8-(pyrrolidin-1-yl)decahydro-quinoxalin-1-yl]-2-(3,4-dichlorophenyl)ethan-1-one], the inhibition at 1 µM is 11% on δ receptor [3]; 0% on σ2 receptor [1]; 0% on μ receptor [4] (read-out: inhibition of the radioligand binding, μ Receptor). The fraction unbound on human serum albumin was 0.075. In “physchem”, this molecule gave a logD of 1.72 ± 0.05. The “selectivity for κ receptor over μ, δ, σ1 and σ2 receptors” value at κ receptor was “high selectivity”. For the same molecule, the Ki on κ receptor ([3H]U-69,593, guinea pig brain membranes, with SEM n = 3, without SEM one experiment) came to 0.599 ± 0.217 µM; at σ1 receptor [2], 7.9 µM. Further, in data set [5], the “compound remaining unchanged (metabolic stability)” value stood at 92 ± 1%.
Take `O=C(Cc1ccc(Cl)c(Cl)c1)N1CCN(Cc2ccccc2)C2CCCC(N3CCCC3)C21` (centres unmarked) [2a]: the Ki at μ receptor [6] was 3.9 µM; at σ1 receptor [7], 1.39 µM; on σ2 receptor [9], 4.39 µM. Moreover, the “inhibition of the radioligand binding, δ Receptor” value on δ receptor [8] was 39%.
Broadly, the Kd is the constant that tells how readily two partners part at equilibrium. A lower Kd goes with a tighter complex. As to [3H]-DAMGO [reference compound], in the data set with μ receptor [4] (guinea pig brain membrane preparation), the Kd was determined as 0.00057 µM.
